According to the NIST ThermoML archive (doi:10.1016/j.jct.2017.08.006):
Numbers after ± are expanded uncertainties.

Columns and labels:
[1] = refractive index (Na D-line) (dimensionless); conditions: 101.33 kPa, Liquid, Standard Abbe refractometry
[2] = Liquid; for mass density: 293.15 K, 101.33 kPa, Pycnometric method
[3] = Boiling temperature at pressure P; conditions: Liquid, Ebulliometric method (Recirculating still)

Row | refractive index ([1]; 293.15 K) | refractive index ([1]; 298.15 K) | mass density [2] | Boiling temperature at pressure P ([3]; 5.01 kPa) | Boiling temperature at pressure P ([3]; 9.98 kPa) | Boiling temperature at pressure P ([3]; 14.69 kPa) | Boiling temperature at pressure P ([3]; 19.75 kPa) | Boiling temperature at pressure P ([3]; 26.67 kPa) | Boiling temperature at pressure P ([3]; 40.02 kPa) | Boiling temperature at pressure P ([3]; 53.72 kPa) | Boiling temperature at pressure P ([3]; 65.01 kPa) | Boiling temperature at pressure P ([3]; 79.21 kPa) | Boiling temperature at pressure P ([3]; 90 kPa) | Boiling temperature at pressure P ([3]; 101.33 kPa) | Boiling temperature at pressure P ([3]; 116.34 kPa) | Boiling temperature at pressure P ([3]; 120 kPa) | Boiling temperature at pressure P ([3]; 125.01 kPa) | Boiling temperature at pressure P ([3]; 130 kPa) | vapor or sublimation pressure ([2]; 381.1 K, Ebulliometric method (Recirculating still)) | Structure (SMILES)
1 | 1.385 ± 0.0007 | 1.3827 ± 0.0007 | 832.5 ± 1 kg/m3 | 33.5 ± 0.18 °C | 47 ± 0.16 °C | 55.23 ± 0.13 °C | 62.17 ± 0.12 °C | 69.60 ± 0.11 °C | 80.57 ± 0.11 °C | 89.19 ± 0.11 °C | 95.2 ± 0.1 °C | 101.51 ± 0.1 °C | 105.86 ± 0.1 °C | 109.98 ± 0.1 °C | 115.03 ± 0.1 °C | 116.21 ± 0.1 °C | 117.72 ± 0.1 °C | 119.27 ± 0.1 °C | – | COCOCC(C)C [1-(methoxymethoxy)-2-methylpropane]
2 | – | 1.3939 ± 0.0007 | 801.8 ± 1 kg/m3 | – | – | – | – | – | – | – | – | – | – | – | – | – | – | – | 101.33 ± 0.51 kPa | CC(C)CO [2-methyl-1-propanol]
3 | – | 1.3971 ± 0.0007 | 809.5 ± 1 kg/m3 | – | – | – | – | – | – | – | – | – | – | – | – | – | – | – | – | CCCCO [butan-1-ol]
